# According to patent publication US9359308B2, “Pyrazine kinase inhibitors” (Portola Pharmaceuticals, Inc., priority 2011, dated 2016):
# Molecular target: T1, full length active recombinant SYK enzyme (Homo sapiens, UniProt P43405)
# T1 construct: full length active recombinant SYK enzyme (Millipore, Calif.); purchased Millipore
# Assay: Inhibition of Syk tyrosine phosphorylation activity (LANCE TR-FRET kinase assay)
# Assay type: biochemical
# Conditions: activity in the Syk assays, class symbols
# In short: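 1 nM full-length active recombinant SYK phosphorylated 550 nM biotin-DEEDYESP-OH with 100 μM ATP in 50 mM Tris pH 7.5, 5 mM MgCl2, 1 mM DTT and 3% DMSO for 1 h at room temperature. After EDTA quench, Eu-anti-phosphotyrosine/SA-APC TR-FRET was read after 1 h. IC50s came from non-linear regression.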
row,IC50,Compound
1,1 to 10 nM,"CC[C@@H](Nc1cnc(C(N)=O)c(Nc2cnc3ccncc3c2)n1)C(N)=O [Example 381, (R)-3-(1,6-naphthyridin-3-ylamino)-5-(1-amino-1-oxobutan-2-ylamino)pyrazine-2-carboxamide]"
2,10 to 100 nM,"NC(=O)CNc1cnc(C(N)=O)c(Nc2ccc3ncccc3c2)n1 [Example 382, 5-(2-amino-2-oxoethylamino)-3-(quinolin-6-ylamino)pyrazine-2-carboxamide]"
3,10 to 100 nM,"CC[C@@H](Nc1cnc(C(N)=O)c(Nc2cnc3cccnc3c2)n1)C(N)=O [Example 383, (R)-3-(1,5-naphthyridin-3-ylamino)-5-(1-amino-1-oxobutan-2-ylamino)pyrazine-2-carboxamide]"
4,10 to 100 nM,"NC(=O)c1ncc(N[C@@H]2CCCC(F)(F)[C@@H]2N)nc1Nc1ccc2cccnc2c1 [Example 384, 5-((1R,2R)-2-amino-3,3-difluorocyclohexylamino)-3-(quinolin-7-ylamino)pyrazine-2-carboxamide]"
5,1 to 10 nM,"NC(=O)c1ncc(N[C@@H]2CCCC(F)(F)[C@@H]2N)nc1Nc1ccc2ccncc2c1 [Example 385, 5-((1R,2R)-2-amino-3,3-difluorocyclohexylamino)-3-(isoquinolin-7-ylamino)pyrazine-2-carboxamide]"
6,1 to 10 nM,"CC[C@@H](Nc1cnc(C(N)=O)c(Nc2ccnc3ncccc23)n1)C(N)=O [Example 386, (R)-3-(1,8-naphthyridin-4-ylamino)-5-(1-amino-1-oxobutan-2-ylamino)pyrazine-2-carboxamide]"
7,> 1000 nM,"NC(=O)c1ncc(N[C@@H]2CCCC(F)(F)[C@@H]2N)nc1Nc1cc(-c2ccccc2)no1 [Example 387, 5-((1R,2R)-2-amino-3,3-difluorocyclohexylamino)-3-(3-phenylisoxazol-5-ylamino)pyrazine-2-carboxamide]"
8,1 to 10 nM,"NC(=O)c1ncc(N[C@H](Cc2c[nH]c3ccccc23)C(N)=O)nc1Nc1ccc2ncccc2c1 [Example 388, (R)-5-(1-amino-3-(1H-indol-3-yl)-1-oxopropan-2-ylamino)-3-(quinolin-6-ylamino)pyrazine-2-carboxamide]"
9,1 to 10 nM,"Cc1cc(Nc2nc(N[C@H](Cc3c[nH]c4ccccc34)C(N)=O)cnc2C(N)=O)sn1 [Example 389, (R)-5-(1-amino-3-(1H-indol-3-yl)-1-oxopropan-2-ylamino)-3-(3-methylisothiazol-5-ylamino)pyrazine-2-carboxamide]"
10,10 to 100 nM,"Cc1cc(Nc2nc(N[C@H](CC3CCCCC3)C(N)=O)cnc2C(N)=O)sn1 [Example 390, (R)-5-(1-amino-3-cyclohexyl-1-oxopropan-2-ylamino)-3-(3-methylisothiazol-5-ylamino)pyrazine-2-carboxamide]"
11,1 to 10 nM,"Cn1ccc2cc(Nc3nc(N[C@@H]4CCCC(F)(F)[C@@H]4N)cnc3C(N)=O)ccc21 [Example 391, 5-((1R,2R)-2-amino-3,3-difluorocyclohexylamino)-3-(1-methyl-1H-indol-5-ylamino)pyrazine-2-carboxamide]"
12,1 to 10 nM,"Cn1ccc2c(Nc3nc(N[C@@H]4CCCC(F)(F)[C@@H]4N)cnc3C(N)=O)cccc21 [Example 392, 5-((1R,2R)-2-amino-3,3-difluorocyclohexylamino)-3-(1-methyl-1H-indol-4-ylamino)pyrazine-2-carboxamide]"
13,1 to 10 nM,"CC[C@@H](Nc1cnc(C(N)=O)c(Nc2ccc3c(ccn3C)c2)n1)C(N)=O [Example 393, (R)-5-(1-amino-1-oxobutan-2-ylamino)-3-(1-methyl-1H-indol-5-ylamino)pyrazine-2-carboxamide]"
14,1 to 10 nM,"CC[C@@H](Nc1cnc(C(N)=O)c(Nc2cccc3c2ccn3C)n1)C(N)=O [Example 394, (R)-5-(1-amino-1-oxobutan-2-ylamino)-3-(1-methyl-1H-indol-4-ylamino)pyrazine-2-carboxamide]"
15,1 to 10 nM,"Cc1cc(Nc2nc(N[C@@H](C(N)=O)c3ccccc3)cnc2C(N)=O)sn1 [Example 395, (R)-5-(2-amino-2-oxo-1-phenylethylamino)-3-(3-methylisothiazol-5-ylamino)pyrazine-2-carboxamide]"

# More lines, now with the values behind:
row,Compound,IC50
1,"CC[C@@H](Nc1cnc(C(N)=O)c(Nc2ccc3cnccc3c2)n1)C(N)=O [Example 368, (R)-5-(1-amino-1-oxobutan-2-ylamino)-3-(isoquinolin-6-ylamino)pyrazine-2-carboxamide]",1 to 10 nM
2,"CC[C@@H](Nc1cnc(C(N)=O)c(Nc2ccc3nccnc3c2)n1)C(N)=O [Example 369, (R)-5-(1-amino-1-oxobutan-2-ylamino)-3-(quinoxalin-6-ylamino)pyrazine-2-carboxamide]",1 to 10 nM
3,"CC[C@@H](Nc1cnc(C(N)=O)c(Nc2ccnc3ccccc23)n1)C(N)=O [Example 370, (R)-5-(1-amino-1-oxobutan-2-ylamino)-3-(quinolin-4-ylamino)pyrazine-2-carboxamide]",1 to 10 nM
4,"NC(=O)c1ncc(N[C@@H]2CCCC(F)(F)[C@@H]2N)nc1Nc1cccnc1 [Example 371, 5-((1R,2R)-2-amino-3,3-difluorocyclohexylamino)-3-(pyridin-3-ylamino)pyrazine-2-carboxamide]",10 to 100 nM
5,"NC(=O)c1ncc(N[C@@H]2CCCC(F)(F)[C@@H]2N)nc1Nc1cccc(F)c1 [Example 372, 5-((1R,2R)-2-amino-3,3-difluorocyclohexylamino)-3-(3-fluorophenylamino)pyrazine-2-carboxamide]",10 to 100 nM
6,"CC[C@@H](Nc1cnc(C(N)=O)c(Nc2cc(C)ns2)n1)C(N)=O [Example 373, (R)-5-(1-amino-1-oxobutan-2-ylamino)-3-(3-methylisothiazol-5-ylamino)pyrazine-2-carboxamide]",1 to 10 nM
7,"Cc1cc(Nc2nc(N[C@H](CC3CC3)C(N)=O)cnc2C(N)=O)sn1 [Example 374, (R)-5-(1-amino-3-cyclopropyl-1-oxopropan-2-ylamino)-3-(3-methylisothiazol-5-ylamino)pyrazine-2-carboxamide]",1 to 10 nM
8,"CC[C@@H](Nc1cnc(C(N)=O)c(Nc2cccc3ncccc23)n1)C(N)=O [Example 375, (R)-5-(1-amino-1-oxobutan-2-ylamino)-3-(quinolin-5-ylamino)pyrazine-2-carboxamide]",1 to 10 nM
9,"CC[C@@H](Nc1cnc(C(N)=O)c(Nc2ccc3cccnc3c2)n1)C(N)=O [Example 376, (R)-5-(1-amino-1-oxobutan-2-ylamino)-3-(quinolin-7-ylamino)pyrazine-2-carboxamide]",1 to 10 nM
10,"CC[C@@H](Nc1cnc(C(N)=O)c(Nc2cccc3ccncc23)n1)C(N)=O [Example 377, (R)-5-(1-amino-1-oxobutan-2-ylamino)-3-(isoquinolin-8-ylamino)pyrazine-2-carboxamide]",100 to 1000 nM
11,"CC[C@@H](Nc1cnc(C(N)=O)c(Nc2cccc3cnccc23)n1)C(N)=O [Example 378, (R)-5-(1-amino-1-oxobutan-2-ylamino)-3-(isoquinolin-5-ylamino)pyrazine-2-carboxamide]",10 to 100 nM
12,"CC[C@@H](Nc1cnc(C(N)=O)c(Nc2ccc3ccncc3c2)n1)C(N)=O [Example 379, (R)-5-(1-amino-1-oxobutan-2-ylamino)-3-(isoquinolin-7-ylamino)pyrazine-2-carboxamide]",1 to 10 nM
13,"CC[C@@H](Nc1cnc(C(N)=O)c(Nc2cnc3ncccc3c2)n1)C(N)=O [Example 380, (R)-3-(1,8-naphthyridin-3-ylamino)-5-(1-amino-1-oxobutan-2-ylamino)pyrazine-2-carboxamide]",1 to 10 nM
